Our source for the TGI and GI50 values is PubChem BioAssay (NCI).

Experiment in all cases: NCI-60 cell line screen, 48 h
For assay [1], the system named is A498 renal.
For assay [2], the system named is UACC-62 melanoma.
Assay [3] concerns HOP-62 NSCLC.
For assay [4], the system named is SN12C renal.
The test system of assay [5] is OVCAR-4 ovarian.
Assay [6] deals with OVCAR-3 ovarian.
In assay [7] the test system is CCRF-CEM leukemia.
Assay [8] relates to NCI-H23 lung.
The subject of assay [9] is SF-268 CNS.
Assay [10] concerns MCF7 breast.

“And” between values parts separate entries of the source, which are not always exact repeats. Equal entries are not always repeated.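 Test compounds were applied to cells in 96-well plates for 48 hours at 5 doses. GI50 marks 50% less growth. TGI: concentration producing complete growth inhibition.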 Some results are limits rather than exact numbers.

As to `Cc1c2cc[n+](C)cc2c(COC2OC(CO)C(O)C2O)c2c3ccccc3n(C)c12` (stereo not drawn), the TGI in [1] was more than 100 µM; in assay [2] it was more than 100 µM; in assay [3] it was more than 74.2 µM; in [4] it was 89.1 µM; in [5] it was more than 100 µM; in assay [6] it was more than 100 µM. Also, the TGI in assay [7] is more than 100 µM; in assay [8] it was more than 100 µM; in [9], more than 97 µM; in assay [10], more than 100 µM.

Take `COc1cc2c(cc1-c1c(C)noc1C)ncc1nc(C3CCCCC3)n(C3CCC(OC(F)F)CC3)c12` (stereo not drawn): the GI50 in assay [3] is 1.97 µM; in assay [5], 2.17 µM; in [8], 2.49 µM; in assay [9], 5.05 µM; in [10], 0.584 µM. The TGI in assay [3], in [5], in assay [8], in assay [9] and in assay [10] was more than 100 µM in each case.

As for `CC(=O)O[C@H]1C(=O)[C@]2(C)[C@@H](OC(=O)OCC(O)CO)C[C@H]3OC[C@@]3(OC(C)=O)[C@H]2[C@H](OC(=O)c2ccccc2)[C@]2(O)C[C@H](OC(=O)[C@H](O)[C@@H](NC(=O)c3ccccc3)c3ccccc3)C(C)=C1C2(C)C` (stereo partly drawn), the TGI was 21.2 µM in [2]; 13.7 µM in [3]; more than 100 µM in assay [4]; more than 83.9 µM in [5]; less than 0.01 µM in assay [6]; 31 µM in assay [7]. Besides, the TGI in assay [8] was more than 43.2 µM; in assay [9] it was more than 67.8 µM; in assay [10], more than 39.7 µM.

In the case of `CC(=O)OC1CC2(O)C(CCC3(C)C(c4ccc(=O)oc4)CCC32O)C2(C)CCC(O)C=C12` (stereo not drawn), the TGI in assay [1] is 0.31 µM and 0.176 µM; in assay [2] it was 0.0827 µM and 0.0478 µM; in [3] it was 0.105 µM and 0.048 µM; in assay [5], 0.0686 µM and 0.0495 µM; in [6], 0.0229 µM; in assay [7], 0.0519 µM and 0.0405 µM. Also, the TGI in [8] is 0.0311 µM and 0.0704 µM; in assay [9], 0.149 µM and 0.0437 µM; in assay [10], 0.188 µM and 0.181 µM. The GI50 in assay [2] is 0.0375 µM; in assay [3], 0.0123 µM; in assay [4], 0.0375 µM; in [5] it was 0.0375 µM; in assay [7], 0.00387 µM and 0.0375 µM; in assay [8], 0.0375 µM. Besides, the GI50 in [9] is 0.00796 µM; in assay [10], 0.0173 µM.

For `CC(C)(C)CC(C)(C)Cc1ccc(OCCOCC[N+](C)(C)Cc2ccccc2)cc1`, the GI50 in [1] was 2.08 µM; in assay [2] it was 1.26 µM; in [3], 2.31 µM; in [4] it was 1.57 µM; in assay [5], 0.681 µM; in [6] it was 1.34 µM. For the same molecule, the GI50 in assay [7] is 1.31 µM; in assay [8], 1.45 µM; in [9], 1.59 µM. Moreover, the TGI in [1] was 9.38 µM; in assay [2], 2.54 µM; in assay [3], 6.73 µM; in assay [4], 3.04 µM; in assay [5], 3.94 µM; in [6], 3.09 µM. For the same molecule, the TGI in [7] stood at 3.72 µM; in assay [8], 3.8 µM; in assay [9] it was 3.19 µM.

With `Cc1c2cc[n+](C)cc2c(C)c2c1[nH]c1ccc(O)cc12`, the TGI in assay [1] was 99.4 µM; in assay [2], 82.1 µM; in [3], 35 µM; in [4], 15.5 µM; in assay [5] it was more than 100 µM; in [6], more than 89.3 µM. Also, the TGI in assay [7] was more than 92.6 µM; in assay [8], 63.4 µM; in assay [9], 23.7 µM; in assay [10], more than 39.4 µM.

Turning to `CCOC(=O)c1c(NC(=S)NCc2ccccc2)sc2c1CCN(C)C2`, the TGI in assay [1] is more than 100 µM; in [2] it was more than 100 µM; in assay [3] it was more than 100 µM; in [4], more than 100 µM; in assay [6], more than 100 µM; in assay [7], 40.3 µM. The TGI in assay [8], in assay [9] and in assay [10] was more than 100 µM throughout.

As for `O=c1c(-c2ccccc2)c[nH]c2cc([N+](=O)[O-])c(/C(Cl)=C/c3ccccc3)cc12`, the TGI is 35.4 µM in [1]; 22.6 µM in assay [2]; 52 µM in assay [3]; 43.7 µM in assay [4]; 8.64 µM in [5]; 8.72 µM in [6]. The TGI is 20.3 µM in assay [7], more than 44.5 µM in assay [8] and 16.7 µM in [9].

As to `COc1cccc2c1C(=O)c1c(O)c3c(c(O)c1C2=O)C[C@@](O)(C(C)=O)C[C@@H]3OC1CC(N)C(O)C(C)O1` (stereo partly drawn), the GI50 in assay [2] was less than 0.0166 µM; in [3] it was less than 0.0127 µM; in assay [4] it was less than 0.0179 µM; in assay [5], 0.0643 µM; in assay [6], 0.0664 µM; in [8], less than 0.0235 µM. Also, the GI50 in assay [9] was 0.0183 µM.

For `CN1CCN(c2ccc3nc(-c4ccc(OCCCN5C(=O)c6cccc7cccc(c67)C5=O)cc4)[nH]c3c2)CC1`, the GI50 in [1] was 24.1 µM; in assay [2] it was 5.18 µM; in assay [4], 15.6 µM; in assay [6] it was 27.1 µM; in [7], 2.62 µM; in assay [8], 8.1 µM. Besides, in assay [9], the GI50 was 26.3 µM. The TGI turned out to be 50.4 µM in [1]; 10.1 µM in assay [2]; 34.8 µM in assay [4]; 95.6 µM in assay [6]; 7.48 µM in assay [7]; 55.9 µM in [8]. In addition, in [9], the TGI is 99.8 µM.
